This passage reports IC50 results from patent US7951819B2, “Imidazo[4, 5-B]pyridin-2-one and oxazolo[4, 5-B] pyridin-2-one compounds and analogs thereof as cancer therapeutic compounds” (Cancer Research Technology Limited, priority 2006, dated 2011).

For test [1], the system named is ppERK. Put plainly: Phospho-ERK Cell-based Assay. The note with it: cells incubated with test compound for 6 hours. How it is done: Compounds were assessed using cell-based assays which were performed according to the following protocol.
Plate out 16,000 cells/well in 99 μL medium in a 96-well plate.
2. Incubate the cells with test compound for 6 hours at 37° C.
5. Add 50 μL of 3 μg/mL primary antibody ppERK (Sigma M8159), diluted in 5% milk powder/TBS, to each well.
13. Read Europium Time Resolved Fluorescence in Victor2.
Note that Europium counts are normalised for protein levels by dividing counts by absorbance.

Test [2] deals with T1, V600E B-RAF (Homo sapiens, UniProt P15056, V600E).
T1 construct: MDRGSH6 (MDRGS-His6) (N); made in house; host or cells: SF9 insect cells (detergent soluble extract / lysate, not purified)
Description: BRAF V600E Kinase Assay. In kind it is biochemical. How it is done: B-raf kinase activity is measured using a 4-tiered cascade enzyme assay similar to that described by Marais R., et al., 1997, J. Biol. Chem., Vol. 272, pp. 4378-4383. B-Raf containing the V600E mutation (Davies, H., et al., 2002, Nature, Vol. 417, pp. 949-954) and an N-terminal MDRGSH6 tag is expressed in SF9 insect cells. Detergent soluble extracts from these cells are diluted 1:100 into an assay mixture containing GST-MEK-H6 (6.5 μg/ml) and GST-ERK-H6 (100 μg/ml) in a buffer containing 800 μM ATP and appropriate concentrations of inhibitor or diluent as control. The mixture is incubated for up to 10 minutes at 30° C. to activate the ERK in a B-Raf dependent manner within the cascade. […] The extent of activation of the GST-ERK is then determined by adding a portion of this quenched reaction mixture to a further reaction mixture containing MBP and 100 μM ATP/gamma [^32P]ATP. After 12 minutes' incubation at 30° C., the incorporation of [^32P] into the MBP substrate, as a measure of B-raf activity, is determined by precipitation with phosphoric acid and isolation by filtration on p81 phosphocellulose paper. […]
Alternatively, B-raf kinase activity is measured using a different 4-tiered cascade enzyme assay. […] The extent of activation of the GST-ERK is then determined by adding 0.033 μL (100 μM) HOT ^32Pα. […]
Compounds were assessed by a kinase assay performed according to the following protocol. […]

Test [3] deals with WM266.4 melanoma cells. Description: Cell proliferation (SRB) assay. In kind it is cell-based. The note with it: Homo sapiens, WM 266-4, 144 h, 6 days growth. The procedure: Cultures of WM266.4 melanoma cells are routinely cultured in DMEM/10% foetal bovine serum, at 37° C., in 5% CO2 water saturated atmosphere. Cultures are maintained in exponential growth phase by sub-culturing before having become confluent (3-5 day intervals). Single cell suspensions are prepared by harvesting an 80 cm^2 tissue culture flask with 5 mL commercial trypsin EDTA. After 5 minutes, the detached cells are mixed with 5 mL fully complemented culture medium and centrifugally pelleted (1000 rpm for 7 minutes). After aspirating the supernatant, the cell pellet is re-suspended in 10 mL fresh medium and the cells fully disaggregated by drawing the whole volume up/down 5 times through a 19-gauge needle. The concentration of the cells is determined using a haemocytometer (1/10 dilution). A suitable volume to give at least a 2-fold excess for the number of tests being conducted, typically 100-200 mL, is prepared by diluting the cell suspension to 10,000/mL, and 100 μL/well dispensed into 96 well plates using a programmable 8-channel peristaltic pump, giving 1000 cells/well, leaving column 12 blank. […] The absorbance at 540 nm in each well (being proportional to the number of cells present) is determined using a plate reader. After averaging the results in rows A-D and E-H, the blank value ([…]) is subtracted, and results expressed as percentage of the untreated value (row 11). […]

T1 sequence (P15056 whole entry V600E): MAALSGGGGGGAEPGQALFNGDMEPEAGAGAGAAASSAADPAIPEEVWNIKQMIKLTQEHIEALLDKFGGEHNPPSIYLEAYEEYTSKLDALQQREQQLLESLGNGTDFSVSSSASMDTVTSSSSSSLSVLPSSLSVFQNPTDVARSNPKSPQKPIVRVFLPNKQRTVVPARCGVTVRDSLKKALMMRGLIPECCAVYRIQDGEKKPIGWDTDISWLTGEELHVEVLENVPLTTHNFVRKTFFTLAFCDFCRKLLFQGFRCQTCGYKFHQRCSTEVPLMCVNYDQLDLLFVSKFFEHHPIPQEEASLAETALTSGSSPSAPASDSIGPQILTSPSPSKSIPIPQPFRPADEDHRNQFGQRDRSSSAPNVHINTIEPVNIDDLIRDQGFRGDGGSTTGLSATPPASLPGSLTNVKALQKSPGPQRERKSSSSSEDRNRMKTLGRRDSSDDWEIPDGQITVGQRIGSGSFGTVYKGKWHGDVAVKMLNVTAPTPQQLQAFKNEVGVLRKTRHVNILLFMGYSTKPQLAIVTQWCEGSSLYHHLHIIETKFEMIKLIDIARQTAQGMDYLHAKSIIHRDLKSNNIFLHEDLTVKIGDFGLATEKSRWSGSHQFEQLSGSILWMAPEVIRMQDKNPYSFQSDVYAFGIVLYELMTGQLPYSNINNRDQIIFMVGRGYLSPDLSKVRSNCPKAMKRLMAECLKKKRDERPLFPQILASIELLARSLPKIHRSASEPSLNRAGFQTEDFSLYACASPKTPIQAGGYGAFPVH

Regarding `O=C(Nc1cccc(Oc2ccnc3[nH]c(=O)[nH]c23)c1)Nc1ccc(Cl)c(C(F)(F)F)c1` [CJS 3678, 1-(4-Chloro-3-(trifluoromethyl)phenyl)-3-(3-(2-oxo-2,3-dihydro-1H-imidazo[4,5-b]pyridin-7-yloxy)phenyl)urea], the IC50 in test [1] was determined as 10.7 µM; in test [2], 0.015 µM; in test [3] it was 4.2 µM.

Broadly, the IC50 is the point on the concentration scale where inhibition reaches its midpoint. High values mean a need for much substance, low ones inhibition by little substance.
